One data set concerns the target T1, V3 receptor (Rattus norvegicus, UniProt P48974).
T1 construct: Anterior pituitary corticotrophs were prepared from adult female Sprague-Dawley rats; from tissue; host or cells: primary anterior pituitary corticotrophs from adult female Sprague-Dawley rats
T1 sequence (P48974 1-425): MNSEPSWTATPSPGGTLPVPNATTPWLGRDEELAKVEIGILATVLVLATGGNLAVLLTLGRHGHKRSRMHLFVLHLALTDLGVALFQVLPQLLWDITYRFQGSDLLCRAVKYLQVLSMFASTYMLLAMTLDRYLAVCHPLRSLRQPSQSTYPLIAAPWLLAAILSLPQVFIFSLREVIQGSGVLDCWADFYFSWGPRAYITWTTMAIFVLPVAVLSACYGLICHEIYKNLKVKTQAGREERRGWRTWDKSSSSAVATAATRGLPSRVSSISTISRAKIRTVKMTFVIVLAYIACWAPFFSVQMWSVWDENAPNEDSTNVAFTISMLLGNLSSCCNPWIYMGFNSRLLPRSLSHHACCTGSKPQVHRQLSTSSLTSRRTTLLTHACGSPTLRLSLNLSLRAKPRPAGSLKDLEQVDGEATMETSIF
Briefly: Block of AVP-induced ACTH release from rat anterior pituitary corticotrophs. It is filed as cell-based. The following applies: inhibition of ACTH release induced by 3×10^-9 mol.L^-1 AVP, ELISA; read-out: V3 receptor antagonism in isolated rat anterior pituitary cells. The protocol: The ability of compounds of the invention to act as V3 antagonists in a physiologically relevant system was determined by measuring their ability to block the release of adrenocorticotropic hormone (ACTH) from anterior pituitary corticotrophs in response to treatment with arginine vasopressin (AVP).
Anterior pituitary corticotrophs were prepared from adult female Sprague-Dawley rats and seeded into 48 well plates. The cells were cultured for 4 days prior to exposure to compound. Test compounds were prepared at […] in 100% DMSO. Cells were exposed to a dose response of test compounds for 20 minutes (10^−8 mol.L^−1-10^−5 mol.L^−1). The final concentration of DMSO in the assay was kept constant at 0.3%. The cells were then exposed to 3×10^−9 mol.L^−1 AVP for 120 minutes. Supernatants were harvested and stored at −20° C. ACTH levels were subsequently measured by ELISA following the manufacturer's instructions (Immunodiagnostic systems, UK (Cat No. DX-SDX018)). Each treatment was carried out in quadruplicate and a mean value obtained for the amount of ACTH released. The degree of antagonism was then calculated as a percentage of the amount of ACTH released by agonist alone after adjustment for basal levels of ACTH. A pIC50 was calculated by fitting a Sigmoidal dose response (variable slope) curve with a non-linear (fit) to the data using the software package GraphPad prism. […]
In general terms: In an ELISA, binding on a coated surface is turned into a signal by an enzyme label.

These results are taken from US7807686B2, “2-(4-oxo-4H-quinazolin-3-yl)acetamides and their use as vasopressin V3 antagonists” (N.V. Organon, priority 2005, dated 2010).

The melting point is the temperature of the solid-liquid transition.

pIC50: −log10 of the molar value.

As for `COc1cccc(-c2nc3ccc(OCCCN4CCCCC4)cc3c(=O)n2CC(=O)NC(C)C)c1` [EXAMPLE 2h, N-Isopropyl-2-[2-(3-methoxyphenyl)-4-oxo-6-(3-piperidin-1-ylpropoxy)-4H-quinazolin-3-yl]acetamide], the pIC50 at V3 receptor is 7.00 to 8.00.

Take `COc1cccc(-c2nc3ccc(-c4cccc(CN(C)C)c4)cc3c(=O)n2CC(=O)NC(C)C)c1` [EXAMPLE 7k, 2-[6-(3-Dimethylaminomethylphenyl)-2-(3-methoxyphenyl)-4-oxo-4H-quinazolin-3-yl]-N-isopropylacetamide]: the pIC50 at V3 receptor is 6.00 to 7.00.

In the case of `CCN(CC)C[C@H](C)COc1ccc2nc(-c3cccc(OC)c3)n(CC(=O)NC(C)C)c(=O)c2c1` [Example 4a, (S)-(+)-2-[6-(3-Diethylamino-2-methylpropoxy)-2-(3-methoxyphenyl)-4-oxo-4H-quinazolin-3-yl]-N-isopropylacetamide], the melting point fell in the range of 161 to 163 °C.
